# Data as given in patent publication US6818200B2, “Method of using deuterated calcium channel blockers” (priority 1994, dated 2004).
# How the values were obtained:
# S. pyogenes = test: Effect of solvent (water or D2O) on ceftazidime activity; assay type: cell-based; settings: dissolved in D2O (FIG. 33)
# Description: The effect of solvent on ceftazidime activity was tested to confirm that dissolving ceftazidime in D2O could alter its efficacy. We therefore dissolved control and modified ceftazidime in water of D2O and tested it effect on S. pyogenes (FIG. 33). […] Thus, our findings underscore the unique importance of isotopes.
# [1] = system: normotensive Sprague-Dawley rats; test: Nicardipines on blood pressure in normotensive Sprague-Dawley rats (Example VI); assay type: in vivo, rat; settings: for slope function of dose response: calculated by Litchfield-Wilcoxon method; for change in mean arterial pressure at equipotent doses: control 1×10^−9 moles, deuterated 3×10^−9 moles, p=NS; for ED16, reduction in mean arterial pressure / ED50, reduction in mean arterial pressure / ED84, reduction in mean arterial pressure: injected, anesthetized rats
# Source text: Effect of deuterated control […] on blood pressure in normotensive Sprague-Dawley rats.
# S. aureus = test: Penicillin V dose-response study; assay type: cell-based
# Description: A dose-response study for penicillin V using S. aureus was conducted (FIG. 30). […] These conditions used a higher inoculum (100 fold) than previous studies.
# A experiment similar to that above was performed except that the dose range was larger.
# [2] = system: T type calcium channels in NE 115 cells; test: Use dependency of calcium channel inhibition, whole cell patch-clamp with repetitive pulses (Example IV)
# Description: In the following set of examples, calcium channels were depolarized with repetitive pulses of current at the intervals indicated. Such studies were carried out using the whole cell version of the patch-clamp. The reduction of inward current as a function of the interval between pulses in the absence of any drug was taken as the control.
# [3] = system: normotensive Sprague-Dawley rats; test: Nifedipines on blood pressure in normotensive Sprague-Dawley rats (Example V); assay type: in vivo, rat; settings: for maximum change in mean arterial pressure at equipotent doses: 1 ml injected, control 2×10^−3 molar, p=NS; for maximum change in mean arterial pressure at equipotent doses / duration of action (hypotensive response): deuterated 1×10^−3 molar; for duration of action (hypotensive response): equipotent doses: control 2×10^−3 molar, p=0.02
# Source text: Effect of deuterated and control nifedipines on blood pressure in normotensive Sprague-Dawley rats.
# [4] = system: Spontaneously hypertensive rats (SHR); test: Blood pressure effect of i.v. nifedipines in anesthetized spontaneously hypertensive rats (Example II); assay type: in vivo, rat; settings: at the three lower concentrations, p=0.08 Wilcoxon rank-sum (FIG. 1)
# Description: Spontaneously hypertensive rats (SHR) were anesthetized with pentobarbital (65 mg/kg, intraperitoneally) and a carotid artery and jugular vein cannulated. Blood pressure was continuously monitored via the carotid artery cannula. […] Aliquots of appropriate dilutions were then injected intravenously in the SHR and blood pressure effects monitored for at least two hours following injection. Doses used were 0.00001, 0.00002, 0.000025, and 0.00005 moles per rat in the control group and in the test group. All rats were within 25 grams of body weight of each other.
# Staphylococcus aureus [5] = test: Antibiotic disc diffusion (NCCLS); assay type: cell-based; settings: disc diffusion (FIG. 19, 29 ceftazidime; FIGS. 21, 22 penicillin V; FIG. 27 methicillin)
# Description: (§1) Antibiotic testing was carried out using disc diffusion and tube dilution methods following NCCLS (National Committee for Clinical Laboratory Standards) methodology with several strains of bacteria.
# (§2) Antibiotic testing was carried using disc diffusion and tube dilution methods following NCCLS (National Committee for Clinical Laboratory Standards) methodology.
# Streptococcus faecalis [6] = test: Antibiotic disc diffusion (NCCLS); assay type: cell-based; settings: disc diffusion (FIGS. 21, 22 penicillin V; FIG. 27 methicillin)
# Description: as §1, §2
# Streptococcus pyogenes [7] = test: Antibiotic disc diffusion (NCCLS); assay type: cell-based; settings: disc diffusion (FIGS. 21, 22 penicillin V; FIG. 27 methicillin)
# Description: as §1, §2
# [8] = system: Staphylococcus aureus (ATCC 25923) or Streptococcus faecalis (ATCC 29212); test: Penicillin V zonal inhibition on Mueller-Hinton agar plates; assay type: cell-based; settings: disks with 0.1 ml of 1 mg/ml solution, 24 hours at 37° C. (FIG. 23)
# Description: Penicillin V. or deuterated penicillin V disks were prepared by allowing 0.1 ml of a 1 mg/ml solution of the respective drugs to absorb into filter paper disks. After drying the disks were placed onto Mueller-Hinton agar plates seeded with either Staphylococcus aureus (ATCC 25923) or Streptococcus faecalis (ATCC 29212). The resulting plates were incubated for 24 hours at 37° C. and zones of inhibition around the disks were measured. Results are graphically depicted in FIG. 23.
# Staphylococcus aureus [9] = test: Antibiotic tube dilution (NCCLS); assay type: cell-based; settings: tube dilution (FIG. 20 penicillin V, FIG. 26 methicillin)
# Description: as §1, §2
# Streptococcus pyogenes [10] = test: Antibiotic tube dilution (NCCLS); assay type: cell-based; settings: tube dilution (FIG. 20 penicillin V, FIG. 26 methicillin)
# Description: as §1, §2
# [11] = system: S. aureus clinical isolates; test: Penicillin V on clinical isolates; assay type: cell-based; settings: methicillin sensitive isolates (FIGS. 34 and 35)
# Description: The effect of control and deuterated penicillin V on S. aureus clinical isolates was determined (FIGS. 34 and 35). […] The modest differences may be related to the concentrations used and density of bacterial seeding on the plates.
# Streptococcus faecalis [12] = test: Antibiotic tube dilution (NCCLS); assay type: cell-based; settings: tube dilution (FIG. 26 methicillin)
# Description: as §1, §2
structure (smiles),measurement,setting,value
"CC(C)(O/N=C(\C(=O)N[C@@H]1C(=O)N2C(C(=O)[O-])=C(C[n+]3ccccc3)CS[C@H]12)c1csc(N)n1)C(=O)O [control ceftazidime, ceftazidime]",activity when dissolved in D2O,S. pyogenes,enhance activity
"COC(=O)C1=C(C)NC(C)=C(C(=O)OCCN(C)Cc2ccccc2)C1c1cccc([N+](=O)[O-])c1 (stereo not drawn) [control nicardipine, nicardipine, reference compound]",slope function of dose response,[1],416
same,change in mean arterial pressure at equipotent doses,[1],−13.8 mmHg
same,"ED16, reduction in mean arterial pressure",[1],6.11e-06 mmol
same,"ED50, reduction in mean arterial pressure",[1],0.00254 mmol
same,"ED84, reduction in mean arterial pressure",[1],1.06 mmol
"CC1(C)S[C@@H]2[C@H](NC(=O)COc3ccccc3)C(=O)N2[C@H]1C(=O)O [control penicillin V, penicillin V, reference compound]",bacteriocidal activity,"S. aureus; higher doses, larger dose range (FIG. 31)",ineffective
[2H]C([2H])([2H])C1=C(C(=O)OC)C(c2cccc([N+](=O)[O-])c2)C(C(=O)OCCN(C)Cc2ccccc2)=C(C([2H])([2H])[2H])N1 (stereo not drawn) [deuterated nicardipine],duration of effect compared with control,[1]; at most time periods (FIG. 10),greater for deuterated nicardipine compared to control nicardipine
same,slope function of dose response,[1],46
same,change in mean arterial pressure at equipotent doses,[1],−13.8 mmHg
same,"ED16, reduction in mean arterial pressure",[1],4.62e-05 mmol
same,"ED50, reduction in mean arterial pressure",[1],0.00211 mmol
same,"ED84, reduction in mean arterial pressure",[1],0.09 mmol
[2H]C([2H])([2H])C1=C(C(=O)OC)C(c2ccccc2[N+](=O)[O-])C(C(=O)OC)=C(C([2H])([2H])[2H])N1 [deuterated nifedipine],calcium current inhibition as a function of pulse frequency,"[2]; 1 and 0.3 second intervals, 5 micromolar (FIG. 4)",more effective than control nifedipine in blocking the calcium channels
same,decrease of inward current at increased stimulation frequency,"[2]; 5 micromolar, FIG. 2 panel C",more effective than control nifedipine
same,use dependent calcium channel inhibition,"[2]; all frequencies, 5 micromolar (FIG. 5)",greater use dependent calcium channel inhibition
same,inhibitory effect on inward calcium current,"[2]; repetitive 1 second pulses, 5 micromolar, p<0.05 (FIG. 3)",more effective at blocking calcium current than control current
same,maximum change in mean arterial pressure at equipotent doses,[3],−40.3 mmHg
same,potency on mean arterial pressure compared with control,"[3]; all doses, six rats per dose, p<0.05 (FIG. 6)",more potent than control nifedipine
same,duration of effect compared with control,[3]; at each time period,greater for deuterated nifedipine compared to control nifedipine
same,duration of action (hypotensive response),[3],62.2 min
same,hypotensive effect compared with regular nifedipine,[4],greater than that of regular nifedipine
CC1(C)S[C@@H]2[C@H](NC(=O)COc3ccccc3)C(=O)N2[C@H]1C(=O)O [deuterated penicillin V],"zones of inhibition, modified vs control drug",Staphylococcus aureus [5],greater for modified (test) compared to control drug
same,"zones of inhibition, modified vs control drug",Streptococcus faecalis [6],greater for modified (test) compared to control drug
same,"zones of inhibition, modified vs control drug",Streptococcus pyogenes [7],greater for modified (test) compared to control drug
same,potency relative to native penicillin V in zonal inhibition,[8],increase in potency
same,"concentration necessary to inhibit growth, modified vs control drug",Staphylococcus aureus [9],substantially less compared to control drug
same,"concentration necessary to inhibit growth, modified vs control drug",Streptococcus pyogenes [10],substantially less compared to control drug
same,"potency, modified vs control drug",[11],always more potent than the controls
same,bacteriocidal activity,"S. aureus; high dose, higher inoculum (100 fold) (FIG. 30)",began to show effect
same,bacteriocidal activity,"S. aureus; higher doses, larger dose range (FIG. 31), listed as modified penicillin V",effective at higher doses
[2H]c1c([2H])c(OC)c(C(=O)N([2H])C2C(=O)N3C2SC(C)(C)C3C(=O)[O-])c(OC)c1[2H].[Na+] (stereo not drawn) [modified methicillin],"zones of inhibition, modified vs control drug",Staphylococcus aureus [5],less for modified compared to control drug
same,"zones of inhibition, modified vs control drug",Streptococcus faecalis [6],less for modified compared to control drug
same,"zones of inhibition, modified vs control drug",Streptococcus pyogenes [7],less for modified compared to control drug
same,"concentration necessary to inhibit growth, modified vs control drug",Staphylococcus aureus [9],less for control compared to modified drug
same,"concentration necessary to inhibit growth, modified vs control drug",Streptococcus faecalis [12],less for control compared to modified drug
same,"concentration necessary to inhibit growth, modified vs control drug",Streptococcus pyogenes [10],less for control compared to modified drug
"COC(=O)C1=C(C)NC(C)=C(C(=O)OC)C1c1ccccc1[N+](=O)[O-] [nifedipine, reference compound]",maximum change in mean arterial pressure at equipotent doses,[3],−45.8 mmHg
same,duration of action (hypotensive response),[3],46.5 min
